Patent US8071642B2, “Dimethyl amino ethyl ether psoralens and methods for their production and use” (Rutgers, The State University of New Jersey, priority 2007, dated 2011)
Structures can show the parent of a compound that is named as a salt.

Test system: PAM 212 keratinocytes
Assay: Photo-induced growth inhibition assay against PAM 212 keratinocytes (UVA activated)
Format: cell-based
Conditions: 1.28 J/cm^2 UVA (320-400 nm), cells counted after 4-5 days of growth, read-out: IC50 (concentration at which photoactivated test compound inhibited growth by 50%)
Description: The photobiological activity was assayed using a keratinocyte cell line grown in a monolayer culture. In this assay, PAM 212 keratinocytes were grown in Dulbecco's Modified Eagle's medium supplemented with 10% newborn calf serum in a 5% carbon dioxide incubator. Cells were inoculated into 6-well Falcon plastic culture dishes at 25,000 cells per well. After 24 hours, the medium was charged to fresh growth medium supplemented with increasing concentrations of the test compounds or the control medium. Controls and test concentrations were analyzed in triplicate.
These plates were incubated in a 37° C. carbon dioxide incubator. After 30 minutes, culture plates were exposed to UVA light (UVA, 320-400 nm) emitted from a bank of four BLB fluorescence light tubes (F40 BL, Sylvania) placed approximately 10 cm above the cell culture plates. The incident light on the culture plates was 2.4 mW/cm^2 as measured with an International Light UV radiometer, Model IL442A). […]
After completion of the irradiation phase, the cell culture medium was drained, the cells were refed with fresh growth medium and then re-incubated with carbon dioxide incubator to allow for cell growth. […] The cells were detached from the plates with trypsin and counted in a Coulter Counter. For control cells or for cells treated with test compounds, cell growth was determined as a percentage of control.

Molecule: 8-[2-(N,N-dimethylamino)ethoxyl-psoralen hydrochloride salt [Formula I (R=H, R1=H, A-B=—CH═CH—)]
- IC50: 0.012 µM

Molecule: CN(C)CCOc1c2c(cc3ccc(=O)oc13)CCO2 [Formula I R=H, R1=H, A-B=—CH2—CH2—, 8-[2-(N,N-dimethylamino)ethoxy]-4′,5′-dihydropsoralen hydrochloride salt]
- IC50: 13 µM
